{"source": "patent US20070048358A1", "about": "“Antimicrobial substrates” (priority 2005, published 2007)", "test_system": "Staphylococcus aureus (ATCC #27660)", "assay": "Rapid Germicidal Time Kill on treated gloves", "type": "cell-based", "settings": "for log reduction of organisms: nitrile gloves, versus applied organisms estimated from latex control", "procedure": "We applied an inoculum of a known amount of microbes to the antimicrobial-treated surface of a glove. After about 3-6 minutes, we assessed the number of microbes that remained on the surface of the treated glove. […] Table 2 reports the relative efficacy of killing after contact with the coated glove. The concentration of organisms on the surface is given at an initial Zero Time point and at 3, 5, and 30 minute points. […] To test the antimicrobial efficacy of a polyhexamethylene biguanide, we treated nitrile examination gloves according to ASTM protocol 04-123409-106 “Rapid Germicidal Time Kill.” In brief, about 50 μL of an overnight culture of Staphylococcus aureus (ATCC #27660, 5×10^8 CFU/mL) was applied to the glove material. After a total contact time of about 6 minutes the glove fabric was placed into a neutralizing buffer. Surviving organisms were extracted and diluted in Letheen broth. Aliquots were spread plated on Tryptic Soy Agar plates. Plates were incubated for 48 hours at 35° C. Following incubation the surviving organisms were counted and the colony forming units (CFU) were recorded. The reduction (log10) in surviving organisms from test material versus control fabric was calculated: Log10 CFU/swatch Control−Log10 CFU/swatch Test Article=Log10 Reduction."}
{"substance": "Polyhexamethylene biguanide (PHMB)", "values": [{"measurement": "log reduction of Staphylococcus aureus ATCC 27660", "setting": "microtextured nitrile glove, machine applied at 0.03 g/glove", "result": "greater than four log reduction"}, {"measurement": "log reduction of organisms", "setting": "hand sprayed with no heat", "result": "greater than one log reduction"}, {"measurement": "log reduction of organisms", "setting": "machine sprayed under heated conditions", "result": "greater than 5 log"}]}
